Values quoted from earlier work in PubChem BioAssay AID1259409 (Chemical Carcinogenesis Research Information System (CCRIS), 2018).
“And” between values parts separate entries of the source, which are not always exact repeats. Equal values may be shown once.

Tested on: rodent chemically induced tumor inhibition, incidence and multiplicity
Test: CCRIS tumor inhibitor studies

For CC(C)(C)c1cc(O)c(O)c(C(C)(C)C)c1, the “tumour outcome (control, treated, inhibition, significance)” value (Carcinogen: BENZO[A]PYRENE, 50-32-8, Dose [Inhibitor]: 0.03 MMOL/G OF DIET DAILY STARTING 7 D BEFORE AND CONTINUING THROUGH 3 D AFTER CARCINOGEN TREATMENT FOLLOWED BY OBSERVAT, Route [Inhibitor]: ORAL, Species: MOUSE, Strain/Sex: ICR/FEMALE, Target Tissue: Type of Lesion: FORESTOMACH: NEOPLASM, Dose [Carcinogen]: 1 MG IN 0.2 ML CORN OIL 2/WK FOR 4 WK, Promoter: NONE USED) is listed as 100%, 75%, 25%, p<0.05 and 95%, 74%, 22%, not significant.

For CCCC(=O)C1=C(O)C(Cc2c(O)c(C)c(OC)c(C(=O)CCC)c2O)=C(O)C(C)(C)C1=O, the “tumour outcome (control, treated, inhibition, significance)” value (Carcinogen: 7,12-DIMETHYLBENZ[A]ANTHRACENE [57-97-6], Dose [Inhibitor]: 85 NMOL/G IN 0.1 ML ACETONE 2X/WK FOR 20 WK 1 HR PRIOR TO EACH PROMOTER DOSE BEGINNING 1 WK POST LAST CARCINOGEN DOSE (S, Route [Inhibitor]: DERMAL, Species: MOUSE, Strain/Sex: ICR/FEMALE, Target Tissue: Type of Lesion: SKIN: PAPILLOMA, Dose [Carcinogen]: 390 NMOL IN 0.1 ML ACETONE ONCE (STUDY DURATION: 21 WK), Promoter: 12-O-TETRADECANOYL-13-ACETATE [16561-29-8]) is listed as 100%, 85%, 15%, not calculated.

For NCc1cc(=O)[nH]o1, the “tumour outcome (control, treated, inhibition, significance)” value (Carcinogen: AZOXYMETHANE, 25843-45-2, Dose [Inhibitor]: 0, 0.5 MG/KG IN 2 ML/KG 0.9% SALINE 1/2 D CONCURRENTLY WITH CARCINOGEN AND CONTINUING FOR STUDY DURATION (STUDY DURATION, Route [Inhibitor]: INTRAPERITONEAL, Species: RAT, Strain/Sex: WISTAR/MALE, Target Tissue: Type of Lesion: COLON: ADENOMA, Dose [Carcinogen]: 7.4 MG/KG IN 0.9% SALINE 1/WK FOR 10 WK, Promoter: NONE USED) is listed as 3/17 (18%), 8/19 (42%), -133%, not significant, the “tumour outcome (control, treated, inhibition, significance)” value (Carcinogen: N-METHYL-N'-NITRO-N-NITROSOGUANIDINE, 70-25-7, Dose [Inhibitor]: 0, 0.25 MG/KG IN NACL INJECTED 1/2 D FOR DURATION OF STUDY BEGINNING 1 WK POST CARCINOGEN DOSE (STUDY DURATION: 52 WK), Route [Inhibitor]: INTRAPERITONEAL, Species: RAT, Strain/Sex: WISTAR/MALE, Target Tissue: Type of Lesion: STOMACH: ADENOCARCINOMA, Dose [Carcinogen]: 50 UG/ML IN DRINKING WATER FOR 25 WK, Promoter: NONE USED) is listed as 13/19 (68%), 12/20 (60%), 12%, not significant and the “tumour outcome (control, treated, inhibition, significance)” value (Carcinogen: N-METHYL-N'-NITRO-N-NITROSOGUANIDINE, 70-25-7, Dose [Inhibitor]: 0, 0.5 MG/KG BW 1/2 D FOR DURATION OF STUDY BEGINNING 1 WK POST LAST CARCINOGEN DOSE (STUDY DURATION: 52 WK), Route [Inhibitor]: INTRAPERITONEAL, Species: RAT, Strain/Sex: SHR/MALE, Target Tissue: Type of Lesion: STOMACH: ADENOCARCINOMA, Dose [Carcinogen]: 25 UG/ML IN DRINKING WATER FOR 25 WK, Promoter: NONE USED) is listed as 10/20 (50%), 3/20 (15%), 70%, p<0.05. For the same molecule, the “tumour outcome (control, treated, inhibition, significance)” value (Carcinogen: N-METHYL-N'-NITRO-N-NITROSOGUANIDINE, 70-25-7, Dose [Inhibitor]: 0, 0.5 MG/KG BW 1/2 D FOR DURATION OF STUDY BEGINNING 1 WK POST LAST CARCINOGEN DOSE (STUDY DURATION: 52 WK), Route [Inhibitor]: INTRAPERITONEAL, Species: RAT, Strain/Sex: WISTAR/MALE, Target Tissue: Type of Lesion: STOMACH: ADENOCARCINOMA, Dose [Carcinogen]: 25 UG/ML IN DRINKING WATER FOR 25 WK, Promoter: NONE USED) was 1/14 (7%), 0/15 (0%), 100%, not significant and the “tumour outcome (control, treated, inhibition, significance)” value (Carcinogen: N-METHYL-N'-NITRO-N-NITROSOGUANIDINE, 70-25-7, Dose [Inhibitor]: 0, 0.5 MG/KG IN NACL INJECTED 1/2 D FOR DURATION OF STUDY BEGINNING 1 WK POST CARCINOGEN DOSE (STUDY DURATION: 52 WK), Route [Inhibitor]: INTRAPERITONEAL, Species: RAT, Strain/Sex: WISTAR/MALE, Target Tissue: Type of Lesion: STOMACH: ADENOCARCINOMA, Dose [Carcinogen]: 50 UG/ML IN DRINKING WATER FOR 25 WK, Promoter: NONE USED) was 13/19 (68%), 12/18 (67%), 2%, not calculated.

In the case of CC(C)(C)C1=CC(=O)C=C(C(C)(C)C)C1=O, the “tumour outcome (control, treated, inhibition, significance)” value (Carcinogen: 7,12-DIMETHYLBENZ[A]ANTHRACENE, 57-97-6, Dose [Inhibitor]: 0, 200 MG/KG BW/D FOR 3 WK BEGINNING 2 WK PRIOR TO CARCINOGEN DOSE (STUDY DURATION: 24 WK), Route [Inhibitor]: INTRAPERITONEAL, Species: RAT, Strain/Sex: SPRAGUE-DAWLEY/FEMALE, Target Tissue: Type of Lesion: MAMMARY GLAND: TUMOR, Dose [Carcinogen]: 33.3 MG/KG BW IN 0.25 ML CORN OIL ONCE AT 50 D OF AGE, Promoter: NONE USED) is given as 91%, 68%, 25%, not calculated.

In the case of CCS(=O)(=O)c1ccc(/C=C(\C)c2ccc3c(c2)C(C)(C)CCC3(C)C)cc1, the “tumour outcome (control, treated, inhibition, significance)” value (Carcinogen: 7,12-DIMETHYLBENZ[A]ANTHRACENE, 57-97-6, Dose [Inhibitor]: 0, 3 MG/KG/D IN FEED REDUCED AFTER 4 WK TO 2.2 MG/KG/D (STUDY DURATION: 13 WK), Route [Inhibitor]: ORAL, Species: RAT, Strain/Sex: SPRAGUE-DAWLEY/FEMALE, Target Tissue: Type of Lesion: MAMMARY GLAND: TUMOR, Dose [Carcinogen]: 15 MG IN ARACHIS OIL ONCE AT 50 D OF AGE, Promoter: NONE USED) is given as 96%, 73%, 24%, not calculated.

For CCCCCCCCCCCCO, the “tumour outcome (control, treated, inhibition, significance)” value (Carcinogen: 4-(METHYLNITROSAMINO)-1-(3-PYRIDYL)-1-BUTANONE, 64091-91-4, Dose [Inhibitor]: 0, 1 UMOL IN 0.1 ML CORN OIL ONCE 2 HR PRIOR TO CARCINOGEN DOSE (STUDY DURATION: 16 WK), Route [Inhibitor]: GAVAGE, Species: MOUSE, Strain/Sex: STRAIN-A/FEMALE, Target Tissue: Type of Lesion: LUNG: ADENOMA, Dose [Carcinogen]: 10 UMOL IN 0.1 ML SALINE ONCE, Promoter: NONE USED) is given as 100%, 100%, 0%, not significant.

In the case of N#CO, the “tumour outcome (control, treated, inhibition, significance)” value (Carcinogen: 1,2-DIMETHYLHYDRAZINE, 540-73-8, Dose [Inhibitor]: 0.013 MMOL/G IN DIET BEGINNING 1 WK POST LAST CARCINOGEN DOSE (STUDY DURATION: 42 WK), Route [Inhibitor]: ORAL, Species: MOUSE, Strain/Sex: CF-1/FEMALE, Target Tissue: Type of Lesion: LARGE BOWEL: ADENOCARCINOMA, Dose [Carcinogen]: 0.6 MG IN 0.2 ML EDTA SOLUTION (PH 6.5) 2X WK FOR 8 WKS., Promoter: NONE USED) is listed as 20%, 0%, 100%, p<0.05, the “tumour outcome (control, treated, inhibition, significance)” value (Carcinogen: 1,2-DIMETHYLHYDRAZINE, 540-73-8, Dose [Inhibitor]: 0.013 MMOL/G IN DIET BEGINNING 1 WK POST LAST CARCINOGEN DOSE (STUDY DURATION: 42 WK), Route [Inhibitor]: ORAL, Species: MOUSE, Strain/Sex: CF-1/FEMALE, Target Tissue: Type of Lesion: LARGE BOWEL: ADENOMA, Dose [Carcinogen]: 0.6 MG IN 0.2 ML EDTA SOLUTION (PH 6.5) 2/WK FOR 8 WK, Promoter: NONE USED) is listed as 41%, 18%, 56%, not significant and the “tumour outcome (control, treated, inhibition, significance)” value (Carcinogen: 1,2-DIMETHYLHYDRAZINE, 540-73-8, Dose [Inhibitor]: 0.026 MMOL/G IN DIET BEGINNING 1 WK POSE LAST CARCINOGEN DOSE (STUDY DURATION: 42 WK), Route [Inhibitor]: ORAL, Species: MOUSE, Strain/Sex: CF-1/FEMALE, Target Tissue: Type of Lesion: LARGE BOWEL: ADENOMA, Dose [Carcinogen]: 0.6 MG IN 0.2 ML EDTA SOLUTION (PH 6.5) 2/WK FOR 8 WK, Promoter: NONE USED) is listed as 41%, 17%, 58%, not significant. The “tumour outcome (control, treated, inhibition, significance)” value (Carcinogen: 1,2-DIMETHYLHYDRAZINE, 540-73-8, Dose [Inhibitor]: 0.026 MMOL/G IN DIET BEGINNING 1 WK POST LAST CARCINOGEN DOSE (STUDY DURATION: 42 WK), Route [Inhibitor]: ORAL, Species: MOUSE, Strain/Sex: CF-1/FEMALE, Target Tissue: Type of Lesion: LARGE BOWEL: ADENOCARCINOMA, Dose [Carcinogen]: 0.6 MG IN 0.2 ML EDTA SOLUTION (PH 6.5) 2/WK FOR 8 WK, Promoter: NONE USED) was 15%, 6%, 60%, not significant and 20%, 6%, 70%, not significant and 18%, 6%, 67%, not significant, the “tumour outcome (control, treated, inhibition, significance)” value (Carcinogen: 1,2-DIMETHYLHYDRAZINE, 540-73-8, Dose [Inhibitor]: 0.026 MMOL/G IN DIET BEGINNING 1 WK POST LAST CARCINOGEN DOSE (STUDY DURATION: 42 WK), Route [Inhibitor]: ORAL, Species: MOUSE, Strain/Sex: CF-1/FEMALE, Target Tissue: Type of Lesion: LARGE BOWEL: ADENOMA, Dose [Carcinogen]: 0.6 MG IN 0.2 ML EDTA SOLUTION (PH 6.5) 2/WK FOR 8 WK, Promoter: NONE USED) was 33%, 11%, 67%, not significant and 37%, 14%, 62%, p<0.05 and the “tumour outcome (control, treated, inhibition, significance)” value (Carcinogen: 7,12-DIMETHYLBENZ(A)ANTHRACENE, 57-97-6, Dose [Inhibitor]: 0.013 MMOL/G IN DIET BEGINNING 1 WK AFTER CARCINOGEN ADMINISTRATION (STUDY DURATION: 18 WK), Route [Inhibitor]: ORAL, Species: RAT, Strain/Sex: SPRAGUE-DAWLEY/FEMALE, Target Tissue: Type of Lesion: MAMMARY GLAND: TUMOR, Dose [Carcinogen]: 12 MG DMBA IN 1.0 ML OLIVE OIL ONCE, Promoter: NONE USED) was 100%, 77%, 23%, p<0.01. For the same molecule, the “tumour outcome (control, treated, inhibition, significance)” value (Carcinogen: 7,12-DIMETHYLBENZ(A)ANTHRACENE, 57-97-6, Dose [Inhibitor]: 0.026 MMOL/G IN DIET BEGINNING 1 WK AFTER CARCINOGEN ADMINISTRATION (STUDY DURATION: 16 WK), Route [Inhibitor]: ORAL, Species: RAT, Strain/Sex: SPRAGUE-DAWLEY/FEMALE, Target Tissue: Type of Lesion: MAMMARY GLAND: TUMOR, Dose [Carcinogen]: 12 MG DMBA IN 1.0 ML OLIVE OIL ONCE, Promoter: NONE USED) was 100%, 60%, 40%, p<0.001 and the “tumour outcome (control, treated, inhibition, significance)” value (Carcinogen: 7,12-DIMETHYLBENZ(A)ANTHRACENE, 57-97-6, Dose [Inhibitor]: 0.026 MMOL/G IN DIET BEGINNING 1 WK AFTER CARCINOGEN ADMINISTRATION (STUDY DURATION: 18 WK), Route [Inhibitor]: ORAL, Species: RAT, Strain/Sex: SPRAGUE-DAWLEY/FEMALE, Target Tissue: Type of Lesion: MAMMARY GLAND: TUMOR, Dose [Carcinogen]: 12 MG DMBA IN 1.0 ML OLIVE OIL ONCE, Promoter: NONE USED) was 94%, 63%, 33%, p<0.05 and 100%, 63%, 37%, p<0.01.
